Laboratory results reported in US6638957B1, “Use of compounds with a nitrogen-oxygen heterocycle” (Jomaa Pharmaka GmbH, priority 1999, dated 2003).
≈ marks a conversion by molar mass, not a printed value. Read-outs that look alike come from different tables or passages of the source.

Experiments:
[1] = target: T1, DOXP reductoisomerase of Escherichia coli (UniProt P56139); experiment: inhibition of recombinant DOXP reductoisomerase (NADPH oxidation); type: biochemical; conditions: 1 mM DOXP, 0,3 mM NADPH, pH 7,5; read-out: IC50(nM) of DOXP reductoisomerase from Helicobacter pilori
T1 sequence (P56139 1-368): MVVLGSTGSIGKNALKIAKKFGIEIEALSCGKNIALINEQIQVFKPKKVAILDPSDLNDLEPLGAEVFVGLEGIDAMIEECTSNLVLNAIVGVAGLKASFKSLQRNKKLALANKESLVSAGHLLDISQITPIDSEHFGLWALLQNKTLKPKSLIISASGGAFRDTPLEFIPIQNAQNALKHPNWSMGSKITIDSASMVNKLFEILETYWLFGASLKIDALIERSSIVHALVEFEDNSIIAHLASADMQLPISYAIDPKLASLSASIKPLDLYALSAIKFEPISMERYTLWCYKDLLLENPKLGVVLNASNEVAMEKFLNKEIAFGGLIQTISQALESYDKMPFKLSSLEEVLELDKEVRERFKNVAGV

Plasmodium falciparum = experiment: antimalaria activity on in vitro cultures, [3H]-hypoxanthine incorporation; type: cell-based; conditions: 72 h, inhibition of [3H]-hypoxanthine incorporation, 48 + 24 hours, read-out: IC50(nM) of malaria culture (Plasmodium falciparum)
Experimental: The antimalaria activity of the compounds listed on page 9 was determined on in vitro cultures of the malaria pathogen Plasmodium falciparum. The depressions of a 96-well microtitre plate were charged with in each case 200 μl of an asynchroneous Plasmodium falciparum culture at a parasitaemia of 0,4% and haematokrit of 2%. A serial dilution series of the compounds in triple steps between concentrations of 100 to 0,14 μmol 1^−1 was then prepared. The plates were incubated at 37° C., 3% CO2 and 5% O2 over a period of 48 hours. 30 μl medium supplemented with 27 μCi ml^−1 [^3H]-hypoxanthine were then added to each well. After incubation for 24 hours the parasites were harvested by filtration on a glass fibre filter and the radioactivity which had been incorporated was measured. The inhibition of the growth of parasites was measured as the percentage inhibition of the incorporation of tritium. Inhibition of the growth of the parasites has been determined as percentage inhibition of incorporation of tritium based on a comparison without the substance. The half-maximum inhibitory concentration (IC50) of the substance was determined by extrapolation of the values.

Pseudomonas aeruginosa = experiment: antibacterial activity, minimum inhibition concentration in liquid culture; type: cell-based; conditions: read-out: MIC(nM) of bacteria culture (Pseudomonas aeruginosa)
Experimental: A dilution series comprising the concentrations 500, 100, 50, 10 and 0 μmol 1^−1 of the individual compounds in LB medium is introduced into 5 culture microtubes in a volume of 0,5 ml. The tubes were inoculated with 10 μl of an overnight culture of E. coli K12 and shaken overnight at 37° C. The growth of the bacteria was assessed on the basis of the turbidity of the medium. The minimum concentration causing inhibition of bacterial growth was determined (minimum inhibition concentration MIC)
The antibacterial activity of P. aeruginosa was determined in the same manner.

Echinochloa = experiment: herbicidal activity, Hydro Vorauflauf; type: in vivo
Experimental: (§1) The determination of herbicidal activity is performed according to standard procedure. Again the compounds listed on page 9 are tested.

Lepidium = experiment: herbicidal activity, Hydro Vorauflauf; type: in vivo
Experimental: as §1

Reis = experiment: herbicidal activity, Hydro Vorauflauf; type: in vivo
Experimental: as §1

Solanum = experiment: herbicidal activity, Hydro Vorauflauf; type: in vivo
Experimental: as §1

Abutilon theophrasti [2] = experiment: herbicidal activity, Erde Vorauflauf; type: in vivo
Experimental: as §1

Alopecurus myosuroides [3] = experiment: herbicidal activity, Erde Vorauflauf; type: in vivo
Experimental: as §1

Amaranthus retroflexus [4] = experiment: herbicidal activity, Erde Vorauflauf; type: in vivo
Experimental: as §1

Avena fatua [5] = experiment: herbicidal activity, Erde Vorauflauf; type: in vivo
Experimental: as §1

Beta vulgaris [6] = experiment: herbicidal activity, Erde Vorauflauf; type: in vivo
Experimental: as §1

Cyperus esculentus [7] = experiment: herbicidal activity, Erde Vorauflauf; type: in vivo
Experimental: as §1

Galium aperine [8] = experiment: herbicidal activity, Erde Vorauflauf; type: in vivo
Experimental: as §1

Setaria viridis [9] = experiment: herbicidal activity, Erde Vorauflauf; type: in vivo
Experimental: as §1

Sinapis arvensis [10] = experiment: herbicidal activity, Erde Vorauflauf; type: in vivo; conditions: Mutarda arvensis
Experimental: as §1

Xanthium strumarium [11] = experiment: herbicidal activity, Erde Vorauflauf; type: in vivo
Experimental: as §1

Zea mays [12] = experiment: herbicidal activity, Erde Vorauflauf; type: in vivo
Experimental: as §1

Abutilon theophrasti [13] = experiment: herbicidal activity, Erde Nachauflauf; type: in vivo
Experimental: as §1

Alopecurus myosuroides [14] = experiment: herbicidal activity, Erde Nachauflauf; type: in vivo
Experimental: as §1

Amaranthus retroflexus [15] = experiment: herbicidal activity, Erde Nachauflauf; type: in vivo
Experimental: as §1

Avena fatua [16] = experiment: herbicidal activity, Erde Nachauflauf; type: in vivo
Experimental: as §1

Beta vulgaris [17] = experiment: herbicidal activity, Erde Nachauflauf; type: in vivo
Experimental: as §1

Cyperus esculentus [18] = experiment: herbicidal activity, Erde Nachauflauf; type: in vivo
Experimental: as §1

Galium aperine [19] = experiment: herbicidal activity, Erde Nachauflauf; type: in vivo
Experimental: as §1

Setaria viridis [20] = experiment: herbicidal activity, Erde Nachauflauf; type: in vivo
Experimental: as §1

Sinapis arvensis [21] = experiment: herbicidal activity, Erde Nachauflauf; type: in vivo; conditions: Mutarda arvensis
Experimental: as §1

Xanthium strumarium [22] = experiment: herbicidal activity, Erde Nachauflauf; type: in vivo
Experimental: as §1

Zea mays [23] = experiment: herbicidal activity, Erde Nachauflauf; type: in vivo
Experimental: as §1

`CC1CON(CCCP(=O)(O)O)C1=O` (stereo not shown) [Compound 5] was tested, and the IC50 [1] was 100 nM, the IC50 (Plasmodium falciparum) was 1200 nM and the MIC (Pseudomonas aeruginosa) was 2200 nM (≈ 0.491 µg/mL). For the same compound, the pest or weed control at 4000 g/ha (Echinochloa; 4000 Gramm/Hektar) was 60%, the pest or weed control at 4000 g/ha (Lepidium; 4000 Gramm/Hektar) was 40% and the pest or weed control at 4000 g/ha (Reis; 4000 Gramm/Hektar) was 40%. It also gave a pest or weed control at 4000 g/ha (Solanum; 4000 Gramm/Hektar) of 0%, a pest or weed control at 2000 g/ha (Abutilon theophrasti [2]; 2000 Gramm/Hektar) of 0% and a pest or weed control at 2000 g/ha (Alopecurus myosuroides [3]; 2000 Gramm/Hektar) of 60%. For the same compound, the pest or weed control at 2000 g/ha (Amaranthus retroflexus [4]; 2000 Gramm/Hektar) was 0%, the pest or weed control at 2000 g/ha (Avena fatua [5]; 2000 Gramm/Hektar) was 0% and the plant injury at 2000 g/ha (Beta vulgaris [6]; 2000 Gramm/Hektar) was 30%. For the same compound, the pest or weed control at 2000 g/ha (Cyperus esculentus [7]; 2000 Gramm/Hektar) was 0%, the pest or weed control at 2000 g/ha (Galium aperine [8]; 2000 Gramm/Hektar) was 0% and the pest or weed control at 2000 g/ha (Setaria viridis [9]; 2000 Gramm/Hektar) was 0%. The pest or weed control at 2000 g/ha (Sinapis arvensis [10]; 2000 Gramm/Hektar) was 50%, the pest or weed control at 2000 g/ha (Xanthium strumarium [11]; 2000 Gramm/Hektar) was 0% and the plant injury at 2000 g/ha (Zea mays [12]; 2000 Gramm/Hektar) was 0%. The pest or weed control at 2000 g/ha (Abutilon theophrasti [13]; 2000 Gramm/Hektar) was 40%, the pest or weed control at 2000 g/ha (Alopecurus myosuroides [14]; 2000 Gramm/Hektar) was 80% and the pest or weed control at 2000 g/ha (Amaranthus retroflexus [15]; 2000 Gramm/Hektar) was 30%. For the same compound, the pest or weed control at 2000 g/ha (Avena fatua [16]; 2000 Gramm/Hektar) was 40%, the plant injury at 2000 g/ha (Beta vulgaris [17]; 2000 Gramm/Hektar) was 40% and the pest or weed control at 2000 g/ha (Cyperus esculentus [18]; 2000 Gramm/Hektar) was 0%. It also gave a pest or weed control at 2000 g/ha (Galium aperine [19]; 2000 Gramm/Hektar) of 70%, a pest or weed control at 2000 g/ha (Setaria viridis [20]; 2000 Gramm/Hektar) of 95% and a pest or weed control at 2000 g/ha (Sinapis arvensis [21]; 2000 Gramm/Hektar) of 90%. For the same compound, the pest or weed control at 2000 g/ha (Xanthium strumarium [22]; 2000 Gramm/Hektar) was 60% and the plant injury at 2000 g/ha (Zea mays [23]; 2000 Gramm/Hektar) was 80%.

With `CN(C)CC(=O)CN1OCCC(C)(C)C1=O` [Compound 8] the IC50 [1] was 24 nM, the IC50 (Plasmodium falciparum) was 700 nM and the MIC (Pseudomonas aeruginosa; LB medium, overnight at 37° C., turbidity) was 7300 nM (≈ 1.67 µg/mL). For the same compound, the pest or weed control at 2000 g/ha (Echinochloa; 2000 Gramm/Hektar) was 40%, the pest or weed control at 2000 g/ha (Lepidium; 2000 Gramm/Hektar) was 30% and the pest or weed control at 2000 g/ha (Reis; 2000 Gramm/Hektar) was 0%. The pest or weed control at 2000 g/ha (Solanum; 2000 Gramm/Hektar) was 30%, the pest or weed control at 1000 g/ha (Abutilon theophrasti [2]; 1000 Gramm/Hektar) was 0% and the pest or weed control at 1000 g/ha (Alopecurus myosuroides [3]; 1000 Gramm/Hektar) was 30%. It also gave a pest or weed control at 1000 g/ha (Amaranthus retroflexus [4]; 1000 Gramm/Hektar) of 20%, a pest or weed control at 1000 g/ha (Avena fatua [5]; 1000 Gramm/Hektar) of 30% and a plant injury at 1000 g/ha (Beta vulgaris [6]; 1000 Gramm/Hektar) of 30%. The pest or weed control at 1000 g/ha (Cyperus esculentus [7]; 1000 Gramm/Hektar) was 0%, the pest or weed control at 1000 g/ha (Galium aperine [8]; 1000 Gramm/Hektar) was 0% and the pest or weed control at 1000 g/ha (Setaria viridis [9]; 1000 Gramm/Hektar) was 0%. For the same compound, the pest or weed control at 1000 g/ha (Sinapis arvensis [10]; 1000 Gramm/Hektar) was 30%, the pest or weed control at 1000 g/ha (Xanthium strumarium [11]; 1000 Gramm/Hektar) was 0% and the plant injury at 1000 g/ha (Zea mays [12]; 1000 Gramm/Hektar) was 30%. It also gave a pest or weed control at 1000 g/ha (Abutilon theophrasti [13]; 1000 Gramm/Hektar) of 50%, a pest or weed control at 1000 g/ha (Alopecurus myosuroides [14]; 1000 Gramm/Hektar) of 70% and a pest or weed control at 1000 g/ha (Amaranthus retroflexus [15]; 1000 Gramm/Hektar) of 50%. For the same compound, the pest or weed control at 1000 g/ha (Avena fatua [16]; 1000 Gramm/Hektar) was 80%, the plant injury at 1000 g/ha (Beta vulgaris [17]; 1000 Gramm/Hektar) was 40% and the pest or weed control at 1000 g/ha (Cyperus esculentus [18]; 1000 Gramm/Hektar) was 0%. It also gave a pest or weed control at 1000 g/ha (Galium aperine [19]; 1000 Gramm/Hektar) of 70%, a pest or weed control at 1000 g/ha (Setaria viridis [20]; 1000 Gramm/Hektar) of 90% and a pest or weed control at 1000 g/ha (Sinapis arvensis [21]; 1000 Gramm/Hektar) of 90%. It also gave a pest or weed control at 1000 g/ha (Xanthium strumarium [22]; 1000 Gramm/Hektar) of 90% and a plant injury at 1000 g/ha (Zea mays [23]; 1000 Gramm/Hektar) of 70%.
